In the supplement of paper PMC11061612:

Key:
[1] = compound: CC1=CN2[C@@H](C1)C=NC3=CC(=C(C=C3C2=O)OC)OCCCCCOC4=C(C=C5C(=C4)N=C[C@@H]6CC(=CN6C5=O)C)OC [SG3199]; conditions: max 0.001 µM
In short: (§1)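 Cancer cell lines were dosed for 72 hours (final DMSO typically 0.2%) after 24 hours at 37°C and 5% CO2 in 1536-well plates containing 7.5 μl DMEM/F12 or RPMI with 10% FBS. Viability came from CellTiter-Glo 2.0 luminescence, scaled between blank-well and DMSO-well means, and dose responses were fitted to a two-parameter logistic curve with a non-linear mixed effects model. The single-agent IC50 was obtained from this fit.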

[2] = compound: NC1(c2ccc(-c3nc4ccn5c(=O)[nH]nc5c4cc3-c3ccccc3)cc2)CCC1 [MK-2206]; conditions: max 10 µM
In short: as §1

[3] = compound: Cc1c2c(nn1C)CSCc1cc(n(C)n1)CSc1cc(c3ccccc3c1)OCCCc1c(C(=O)O)n(C)c3c-2c(Cl)ccc13 [AZD5991]; conditions: max 1 µM
In short: as §1

[4] = compound: Cc1cc2ncnn2cc1Nc1ncc2c(n1)n(C1CCOCC1)c(=O)n2C [AZD7648]; conditions: max 10 µM
In short: as §1

[5] = compound: CC1=C(C(=CC=C1)Cl)NC(=O)C2=CN=C(S2)NC3=CC(=NC(=N3)C)N4CCN(CC4)CCO [Dasatinib]; conditions: max 2 µM
In short: as §1

[6] = compound: O=c1[nH]cc(F)c(=O)[nH]1 [5-Fluorouracil]; conditions: max 20 µM
In short: as §1

[7] = compound: CC(C)n1c(=O)n(C)c2cnc3cc(F)c(-c4ccc(OCCCN5CCCCC5)nc4)cc3c21 [AZD1390]; conditions: max 0.3 µM
In short: as §1

[8] = compound: COc1cc([C@@H]2c3cc4c(cc3[C@@H](O[C@@H]3O[C@@H]5CO[C@@H](C)O[C@H]5[C@H](O)[C@H]3O)[C@H]3COC(=O)[C@H]23)OCO4)cc(OC)c1O [Etoposide]; conditions: max 10 µM
In short: as §1

[9] = compound: COc1nnc2ccc(N3CCC(c4ccc(OCCN5CCN(C)C(=O)[C@H]5C)cc4)CC3)nn12 [AZD5153]; conditions: max 1 µM
In short: as §1

[10] = compound: CC1(C)CCC(CN2CCN(c3ccc(C(=O)NS(=O)(=O)c4ccc(NCC5CCOCC5)c([N+](=O)[O-])c4)c(Oc4cnc5[nH]ccc5c4)c3)CC2)=C(c2ccc(Cl)cc2)C1 [Venetoclax]; conditions: max 1 µM
In short: as §1

[11] = compound: CC(=O)O[C@H]1C(=O)[C@@]2(C)[C@H]([C@H](OC(=O)c3ccccc3)[C@]3(O)C[C@H](OC(=O)[C@H](O)[C@@H](NC(=O)c4ccccc4)c4ccccc4)C(C)=C1C3(C)C)[C@]1(OC(C)=O)CO[C@@H]1C[C@@H]2O [Paclitaxel]; conditions: max 3 µM
In short: as §1

[12] = compound: COc1cccc2c1C(=O)c1c(O)c3c(c(O)c1C2=O)C[C@@](O)(C(=O)CO)C[C@@H]3O[C@H]1C[C@H](N)[C@H](O)[C@H](C)O1 [Doxorubicin]; conditions: max 1 µM
In short: as §1

[13] = compound: CCN(CCO)CCCOc1ccc2c(Nc3cc(CC(=O)Nc4cccc(F)c4)[nH]n3)ncnc2c1 [AZD2811]; conditions: max 1 µM
In short: as §1

[14] = compound: C[C@@H](Nc1cc(F)cc(F)c1)c1cc(C(=O)N(C)C)cc2c(=O)cc(N3CCOCC3)oc12 [AZD8186]; conditions: max 10 µM
In short: as §1

[15] = compound: COc1cccc(OCCCN)c1-c1cc(Nc2cnc(C#N)cn2)n[nH]1 [Prexasertib]; conditions: max 1 µM
In short: as §1

[16] = compound: C[C@@H]1COCCN1C2=NC(=NC(=C2)C3(CC3)[S@](=N)(=O)C)C4=C5C=CNC5=NC=C4 [AZD6738]; conditions: max 10 µM
In short: as §1

[17] = compound: Cc1nc(-c2cn3c(n2)-c2ccc(-c4cnn(C(C)(C)C(N)=O)c4)cc2OCC3)n(C(C)C)n1 [Taselisib]; conditions: max 10 µM
In short: as §1

[18] = compound: C[C@@H](Oc1cc(-c2cnn(C3CCNCC3)c2)cnc1N)c1c(Cl)ccc(F)c1Cl [Crizotinib]; conditions: max 10 µM
In short: as §1

[19] = compound: CN(C)CCCOc1ccc(-c2ccc3ncc4c(c3c2)n(C2CCOCC2)c(=O)n4C)cn1 [AZD0156]; conditions: max 3 µM
In short: as §1

[20] = compound: C=CCn1c(=O)c2cnc(Nc3ccc(N4CCN(C)CC4)cc3)nc2n1-c1cccc(C(C)(C)O)n1 [AZD1775]; conditions: max 3 µM
In short: as §1

[21] = compound: Cn1cnc2c(F)c(Nc3ccc(Br)cc3Cl)c(C(=O)NOCCO)cc21 [Selumetinib]; conditions: max 10 µM
In short: as §1

[22] = compound: COc1cc2ncnc(Nc3ccc(F)c(Cl)c3)c2cc1OCCCN1CCOCC1 [Gefitinib]; conditions: max 10 µM
In short: as §1

[23] = compound: O=C(Nc1ccc2[nH]nc(-c3ccncc3)c2c1)[C@@H]1CCN(CC(=O)N2CCN(c3ccc(-c4ncccn4)cc3)CC2)C1; conditions: max 5 µM
In short: as §1

[24] = compound: C[C@@H](c1ccc2nccn2c1)n1nnc2ncc(-c3cnn(C)c3)nc21 [Savolitinib]; conditions: max 1 µM
In short: as §1

[25] = compound: N#Cc1cnc(Nc2cc(NC[C@H]3CNCCO3)c(C(F)(F)F)cn2)cn1 [SRA737]; conditions: max 10 µM
In short: as §1

[26] = compound: O=C(c1cc(Cc2n[nH]c(=O)c3ccccc23)ccc1F)N1CCN(C(=O)C2CC2)CC1 [Olaparib]; conditions: max 10 µM
In short: as §1

[27] = compound: CCc1c2c(nc3ccc(O)cc13)-c1cc3c(c(=O)n1C2)COC(=O)[C@]3(O)CC [SN-38]; conditions: max 0.3 µM
In short: as §1

[28] = compound: COc1cc(Nc2ncc3c(n2)-c2ccc(Cl)cc2C(c2c(F)cccc2OC)=NC3)ccc1C(=O)O [Alisertib]; conditions: max 10 µM
In short: as §1

[29] = compound: Nc1ccn([C@@H]2O[C@H](CO)[C@@H](O)C2(F)F)c(=O)n1 [Gemcitabine]; conditions: max 0.3 µM
In short: as §1

[30] = compound: C1CN(CCC1(C(=O)N[C@@H](CCO)C2=CC=C(C=C2)Cl)N)C3=NC=NC4=C3C=CN4 [AZD5363]; conditions: max 10 µM
In short: as §1

[31] = compound: CC(=O)c1c(C)c2cnc(Nc3ccc(N4CCNCC4)cn3)nc2n(C2CCCC2)c1=O [Palbociclib]; conditions: max 10 µM
In short: as §1

[32] = compound: CN(CC[C@H](CSC1=CC=CC=C1)NC2=C(C=C(C=C2)S(=O)(=O)NC(=O)C3=CC=C(C=C3)N4CCC(CC4)[C@H](C5=CC=CC=C5C6=CC=C(C=C6)Cl)O)S(=O)(=O)C(F)(F)F)CCO [AZD4320]; conditions: max 1 µM
In short: as §1

[33] = compound: CS(=O)(=O)CCNCc1ccc(-c2ccc3ncnc(Nc4ccc(OCc5cccc(F)c5)c(Cl)c4)c3c2)o1 [Lapatinib]; conditions: max 10 µM
In short: as §1

[34] = compound: C1CC(C1)(C(=O)[O-])C(=O)[O-].N.N.[Pt+2] [Carboplatin]; conditions: max 10 µM
In short: as §1

[35] = compound: CC(=O)Nc1cccc(-n2c(=O)n(C3CC3)c(=O)c3c(Nc4ccc(I)cc4F)n(C)c(=O)c(C)c32)c1 [Trametinib]; conditions: max 1 µM
In short: as §1

Cell Line	IC50, cell viability 72 h [1] [µM]	IC50, cell viability 72 h [2] [µM]	IC50, cell viability 72 h [3] [µM]	IC50, cell viability 72 h [4] [µM]	IC50, cell viability 72 h [5] [µM]	IC50, cell viability 72 h [6] [µM]	IC50, cell viability 72 h [7] [µM]	IC50, cell viability 72 h [8] [µM]	IC50, cell viability 72 h [9] [µM]	IC50, cell viability 72 h [10] [µM]	IC50, cell viability 72 h [11] [µM]	IC50, cell viability 72 h [12] [µM]	IC50, cell viability 72 h [13] [µM]	IC50, cell viability 72 h [14] [µM]	IC50, cell viability 72 h [15] [µM]	IC50, cell viability 72 h [16] [µM]	IC50, cell viability 72 h [17] [µM]	IC50, cell viability 72 h [18] [µM]	IC50, cell viability 72 h [19] [µM]	IC50, cell viability 72 h [20] [µM]	IC50, cell viability 72 h [21] [µM]	IC50, cell viability 72 h [22] [µM]	IC50, cell viability 72 h [23] [µM]	IC50, cell viability 72 h [24] [µM]	IC50, cell viability 72 h [25] [µM]	IC50, cell viability 72 h [26] [µM]	IC50, cell viability 72 h [27] [µM]	IC50, cell viability 72 h [28] [µM]	IC50, cell viability 72 h [29] [µM]	IC50, cell viability 72 h [30] [µM]	IC50, cell viability 72 h [31] [µM]	IC50, cell viability 72 h [32] [µM]	IC50, cell viability 72 h [33] [µM]	IC50, cell viability 72 h [34] [µM]	IC50, cell viability 72 h [35] [µM]
NCI-H1792 (Lung Adenocarcinoma)	> 0.001	> 10	> 1	> 10	1.55	7.72	> 0.3	7.11	0.561	> 1	0.00592	0.558	> 1	> 10	0.0979	4.81	4.88	6.07	> 3	0.73	> 10	> 10	> 5	> 1	> 10	> 10	0.159	5.11	0.0345	> 10	> 10	> 1	> 10	> 10	0.0835
NCI-H2818 (Mesothelioma)	> 0.001	> 10	> 1	> 10	> 2	> 20	> 0.3	> 10	> 1	> 1	0.745	> 1	> 1	> 10	> 1	> 10	> 10	> 10	> 3	> 3	> 10	> 10	> 5	> 1	> 10	> 10	> 0.3	> 10	> 0.3	> 10	> 10	> 1	> 10	> 10	> 1
SR (Other Blood Carcinomas)	> 0.001	> 10	0.352	> 10	> 2	4.32	> 0.3	0.126	0.0864	0.722	0.00575	0.0261	0.0435	> 10	0.00588	1.75	> 10	0.251	> 3	0.187	> 10	> 10	> 5	> 1	1.4	> 10	0.0033	0.0503	0.0453	> 10	3	0.677	> 10	> 10	> 1
SW837 (Colorectal Carcinoma)	> 0.001	> 10	> 1	> 10	> 2	> 20	> 0.3	> 10	0.717	> 1	0.582	> 1	> 1	> 10	0.186	> 10	> 10	> 10	> 3	2.24	9.89	> 10	> 5	> 1	> 10	> 10	> 0.3	> 10	> 0.3	> 10	> 10	> 1	> 10	> 10	0.3
SW1417 (Colorectal Carcinoma)	> 0.001	> 10	> 1	> 10	> 2	> 20	> 0.3	> 10	> 1	> 1	0.422	> 1	> 1	> 10	0.567	> 10	> 10	> 10	> 3	> 3	4.87	> 10	1.35	> 1	> 10	> 10	0.182	> 10	> 0.3	> 10	> 10	> 1	> 10	> 10	0.0515
